Here are results for 47 compounds from the Biogen ADME set (Fang et al. 2023).

Values after ≈ are worked out from the molar mass of the structure shown.

For this data set the following is noted: for aqueous solubility: pH 6.8.

In general, aqueous solubility refers to the concentration that dissolves in the medium under given conditions. A lower aqueous solubility goes with little dissolved substance.

For `Cc1ccc2nc(C)c(C(=O)N3CCC(C(=O)Nc4ccncc4)CC3)cc2c1`, the MDR1-MDCK efflux ratio came out at 36.9; the intrinsic clearance, human liver microsomes came to 21.1 mL/min/kg; the intrinsic clearance, rat liver microsomes amounted to 70 mL/min/kg; the aqueous solubility is 52.5 µg/mL (≈ 135 µM).

Turning to `CN1C(=O)[C@H](Cc2ccccc2)N[C@@H]1C(C)(C)C`, the MDR1-MDCK efflux ratio amounted to 0.771; the intrinsic clearance, human liver microsomes is 53.9 mL/min/kg; the intrinsic clearance, rat liver microsomes worked out at 747 mL/min/kg; the aqueous solubility was found to be 30.3 µg/mL (≈ 123 µM).

Turning to `O=c1[nH]c2ccccc2n1C1CCN(c2ncnc3sccc23)CC1`, the intrinsic clearance, human liver microsomes is 35 mL/min/kg; the intrinsic clearance, rat liver microsomes was found to be 339 mL/min/kg; the aqueous solubility turned out to be 4.25 µg/mL (≈ 12.1 µM).

Take `c1nc(NC2CCN(C3CC3)CC2)c2sccc2n1`: the MDR1-MDCK efflux ratio worked out at 1.24; the intrinsic clearance, human liver microsomes was determined as 17.4 mL/min/kg; the intrinsic clearance, rat liver microsomes is 80.6 mL/min/kg; the aqueous solubility is 56.2 µg/mL (≈ 205 µM).

As to `CC(C)CC(NC(=O)C(O)C(N)Cc1ccccc1)C(=O)O` (centres undefined), the MDR1-MDCK efflux ratio turned out to be 0.744 and the fraction unbound, rat plasma was found to be 0.347.

The compound `Cc1ccc2c(CC(=O)N(C)CC(N)=O)coc2c1C` showed an aqueous solubility of 34.9 µg/mL (≈ 127 µM).

Regarding `CCn1ncnc1-c1[nH]cnc1-c1ccccc1`, the MDR1-MDCK efflux ratio was 2.19; the intrinsic clearance, human liver microsomes was at most 4.74 mL/min/kg; the intrinsic clearance, rat liver microsomes was 48 mL/min/kg; the aqueous solubility was 23 µg/mL (≈ 96.2 µM).

Turning to `Cc1cc(Nc2ccc(F)cn2)cc(C2CCN(C(=O)Cn3nc(C)ccc3=O)C2)n1` (centres undefined), the MDR1-MDCK efflux ratio came out at 29.9; the intrinsic clearance, human liver microsomes came out at 19.7 mL/min/kg; the intrinsic clearance, rat liver microsomes is 89.9 mL/min/kg.

For `COc1cccc(OCCCn2cncc2-c2cc3c(cc2OC)OCCCO3)c1`, the MDR1-MDCK efflux ratio is 5.28; the intrinsic clearance, human liver microsomes came to 16.7 mL/min/kg; the intrinsic clearance, rat liver microsomes is 106 mL/min/kg; the aqueous solubility is 95.5 µg/mL (≈ 233 µM).

`COc1cc2c(cc1OC)CN(C(=O)C1CCCN(S(=O)(=O)c3ccc(F)cc3)C1)CC2` (centres undefined): the MDR1-MDCK efflux ratio is 5.4; the intrinsic clearance, human liver microsomes came out at 150 mL/min/kg; the intrinsic clearance, rat liver microsomes is 1220 mL/min/kg; the aqueous solubility was 7.05 µg/mL (≈ 15.2 µM).

Regarding `CCCOc1ccccc1C(=O)N1CC(Oc2cccc(OC)c2)C1`, the MDR1-MDCK efflux ratio was 0.72; the intrinsic clearance, human liver microsomes came to 92.8 mL/min/kg; the intrinsic clearance, rat liver microsomes was found to be 1360 mL/min/kg; the aqueous solubility was determined as 42.3 µg/mL (≈ 124 µM).

For `O=C(C1CC1)N1CC[C@@H](Cc2n[nH]c(=O)n2-c2ccc(-c3ccc4occc4c3)cc2)C1`, the MDR1-MDCK efflux ratio turned out to be 61.1; the intrinsic clearance, human liver microsomes came out at 20.4 mL/min/kg; the intrinsic clearance, rat liver microsomes was determined as 101 mL/min/kg; the aqueous solubility is 40.1 µg/mL (≈ 93.6 µM).

As for `C[C@H](Cc1cc2c(c(C(N)=O)c1)N(CCCO)CC2)NCCOc1ccccc1OCC(F)(F)F`, the MDR1-MDCK efflux ratio was determined as 27.4; the intrinsic clearance, human liver microsomes is 59 mL/min/kg; the intrinsic clearance, rat liver microsomes is 313 mL/min/kg.

Turning to `CC(C)(C)C(=O)N1CCN(C(=O)CCN2CCOC2=O)CC1`, the MDR1-MDCK efflux ratio was 64.9; the intrinsic clearance, human liver microsomes is at most 4.74 mL/min/kg; the intrinsic clearance, rat liver microsomes was at most 10.7 mL/min/kg; the aqueous solubility worked out at 62.7 µg/mL (≈ 201 µM).

On to `Nc1ccc2c(c1)ncn2CCc1ccccc1`, for which the MDR1-MDCK efflux ratio is 0.701; the intrinsic clearance, human liver microsomes was at most 4.74 mL/min/kg; the intrinsic clearance, rat liver microsomes was 28.1 mL/min/kg; the aqueous solubility amounted to 38.4 µg/mL (≈ 162 µM).

For `CCOc1cc(-c2nnc(NC(=O)c3cccc(C(F)(F)F)c3)o2)cc(OCC)c1OCC`, the intrinsic clearance, human liver microsomes amounted to 7.61 mL/min/kg and the intrinsic clearance, rat liver microsomes came out at 17.5 mL/min/kg.

`CN1CCN(S(=O)(=O)c2ccc(C(F)(F)F)nc2)C(C)(C)C1`: the MDR1-MDCK efflux ratio was 0.642; the intrinsic clearance, human liver microsomes was found to be 42.2 mL/min/kg; the intrinsic clearance, rat liver microsomes amounted to 661 mL/min/kg.

With `Cc1cc2c(s1)c1cnn(Cc3ccccc3F)c(=O)c1n2C`, the intrinsic clearance, human liver microsomes is 326 mL/min/kg and the intrinsic clearance, rat liver microsomes came to 2650 mL/min/kg.

In the case of `Cc1cn2cc(C(=O)N(C)CCO)cc(N[C@@H]3CCOc4cccc(C)c43)c2n1`, the MDR1-MDCK efflux ratio was 73.4; the intrinsic clearance, human liver microsomes is 83.6 mL/min/kg; the intrinsic clearance, rat liver microsomes worked out at 288 mL/min/kg.

In the case of `CC(=O)NCc1cc2n(n1)CCN(C1Cc3ccccc3C1)C2`, the MDR1-MDCK efflux ratio came out at 1.12; the intrinsic clearance, human liver microsomes was at most 4.74 mL/min/kg; the intrinsic clearance, rat liver microsomes was at most 10.7 mL/min/kg.

With `CNc1ncc2cc(-c3ccc(-c4cccc(C)n4)cc3Cl)c(=O)n(C[C@H]3OC[C@H](N)CO3)c2n1`, the intrinsic clearance, human liver microsomes is at most 4.74 mL/min/kg and the intrinsic clearance, rat liver microsomes was 170 mL/min/kg.

Turning to `Cc1[nH]c2ccc(Cl)cc2c1CC(=O)N1CCC(Cc2ncncc2C(N)=O)CC1`, the MDR1-MDCK efflux ratio was determined as 18.6; the intrinsic clearance, human liver microsomes was 357 mL/min/kg; the intrinsic clearance, rat liver microsomes stood at 1170 mL/min/kg; the aqueous solubility worked out at 46.5 µg/mL (≈ 109 µM).

Consider `CC(C)(C)NC(=O)c1cnc(-c2ccc(Cl)s2)s1`, for which the MDR1-MDCK efflux ratio stood at 0.494; the intrinsic clearance, human liver microsomes stood at 41.6 mL/min/kg; the intrinsic clearance, rat liver microsomes was determined as 167 mL/min/kg; the aqueous solubility was 1.1 µg/mL (≈ 3.66 µM).

As to `CC(C)(O)CNc1nc(Nc2ccnc(C(F)(F)F)c2)nc(-c2cccc(C(F)(F)F)n2)n1`, the MDR1-MDCK efflux ratio stood at 24.8 and the aqueous solubility came out at 0.14 µg/mL (≈ 0.296 µM).

Regarding `C1CCC(OCc2noc(C3CC3)n2)CC1`, the MDR1-MDCK efflux ratio turned out to be 0.884; the intrinsic clearance, human liver microsomes amounted to 34 mL/min/kg; the intrinsic clearance, rat liver microsomes is 372 mL/min/kg; the aqueous solubility stood at 16.2 µg/mL (≈ 72.9 µM).

Take `CC(=O)NC[C@H]1C[C@]2(C)[C@@H](CCCC[C@]2(C)O)N1CC1(O)CCCCCC1`: the intrinsic clearance, human liver microsomes is 51.2 mL/min/kg and the intrinsic clearance, rat liver microsomes worked out at 587 mL/min/kg.

With `CN(C)C(=O)C(C)(C)NC(=O)OC(C)(C)C`, the MDR1-MDCK efflux ratio was determined as 1.37; the intrinsic clearance, human liver microsomes is at most 4.74 mL/min/kg; the intrinsic clearance, rat liver microsomes stood at 24.3 mL/min/kg.

Turning to `COc1ccc(OCC(=O)N2CCN(C)CC2)cc1`, the MDR1-MDCK efflux ratio came out at 0.763; the intrinsic clearance, human liver microsomes was at most 4.74 mL/min/kg; the intrinsic clearance, rat liver microsomes is 133 mL/min/kg; the aqueous solubility amounted to 52.5 µg/mL (≈ 199 µM).

`CCn1c(C(=O)N(C2CC2)C2CC2)cc2c3c(ncn3C)c(Nc3cc(C)n(C)n3)nc21`: the MDR1-MDCK efflux ratio is 21; the intrinsic clearance, human liver microsomes worked out at 11.3 mL/min/kg; the intrinsic clearance, rat liver microsomes amounted to 20.1 mL/min/kg.

`CCOc1ccccc1N/C=C1\C(=O)Oc2ccccc2C1=O` returned an aqueous solubility of 0.66 µg/mL (≈ 2.13 µM).

Consider `N#Cc1ncn(Cc2ncc(-c3ccccc3)s2)c1C#N`, for which the aqueous solubility was 44.5 µg/mL (≈ 153 µM).

Consider `C[C@@H](CN1CCC(n2c(=O)[nH]c3cc(Br)ccc32)CC1)NC(=O)[C@@H]1C[C@H]1c1ccccc1`, for which the intrinsic clearance, rat liver microsomes stood at 574 mL/min/kg.

Take `Cc1nn(C)c2nc(-c3ccncc3)cc(C(=O)O)c12`: the intrinsic clearance, human liver microsomes is at most 4.74 mL/min/kg and the intrinsic clearance, rat liver microsomes is at most 10.7 mL/min/kg.

As to `Cc1cnc(NC(=O)c2cc(S(=O)(=O)N(C)C)ccc2N2CCCC2)s1`, the MDR1-MDCK efflux ratio amounted to 19.9 and the aqueous solubility is 0.21 µg/mL (≈ 0.532 µM).

`Cc1cccc(CNc2cccc3c2CCN(S(C)(=O)=O)C3)c1`: the MDR1-MDCK efflux ratio was found to be 0.65 and the aqueous solubility was found to be 0.35 µg/mL (≈ 1.06 µM).

`O=C(c1ccc(NS(=O)(=O)c2cccc3cnccc23)cc1)N1CCCC1`: the MDR1-MDCK efflux ratio was 79.1; the intrinsic clearance, human liver microsomes amounted to 26.7 mL/min/kg; the intrinsic clearance, rat liver microsomes was 562 mL/min/kg.

For the compound `Cc1nccc(NC(=O)c2ccncc2Cl)c1Cl`, the MDR1-MDCK efflux ratio is 0.729; the intrinsic clearance, human liver microsomes is 21.2 mL/min/kg; the intrinsic clearance, rat liver microsomes came to 78.1 mL/min/kg.

As to `CCOCCC(=O)N1CCC2(CCCN(C)CC2)CC1`, the MDR1-MDCK efflux ratio stood at 2.92; the intrinsic clearance, human liver microsomes was at most 4.74 mL/min/kg; the intrinsic clearance, rat liver microsomes is 30.6 mL/min/kg.

As to `COc1cccc(C)c1C(=O)N[C@H](CO)CCSC`, the MDR1-MDCK efflux ratio was 1.7; the intrinsic clearance, human liver microsomes was 32.5 mL/min/kg; the intrinsic clearance, rat liver microsomes was 741 mL/min/kg.

For `C=CCN(Cc1cccnc1)c1nc(C)nc2sccc12`, the MDR1-MDCK efflux ratio stood at 0.798; the intrinsic clearance, human liver microsomes came out at 188 mL/min/kg; the intrinsic clearance, rat liver microsomes was determined as 1480 mL/min/kg; the aqueous solubility worked out at 45.5 µg/mL (≈ 154 µM).

Turning to `COc1ccc([C@H]2CN(C(C)=O)[C@@H]3CCCN(Cc4cccc(F)c4)[C@H]23)cc1`, the MDR1-MDCK efflux ratio turned out to be 1.35; the fraction unbound, human plasma is 0.0394; the fraction unbound, rat plasma is 0.0393; the intrinsic clearance, human liver microsomes turned out to be 176 mL/min/kg. Also, the intrinsic clearance, rat liver microsomes is 1970 mL/min/kg and the aqueous solubility is 45 µg/mL (≈ 118 µM).

Regarding `COc1ccccc1C(=O)NCc1nc(C)cc(N2CCCCC2)n1`, the MDR1-MDCK efflux ratio was determined as 0.243; the intrinsic clearance, human liver microsomes was 96.3 mL/min/kg; the intrinsic clearance, rat liver microsomes was determined as 1050 mL/min/kg; the aqueous solubility is 67 µg/mL (≈ 197 µM).

In the case of `Cn1ccnc1-c1noc(NCc2ccccc2)n1`, the MDR1-MDCK efflux ratio came to 1.21; the intrinsic clearance, human liver microsomes came out at 5.04 mL/min/kg; the intrinsic clearance, rat liver microsomes came to 193 mL/min/kg.

With `N#Cc1ccccc1N1CCC(N)CC1`, the MDR1-MDCK efflux ratio amounted to 0.562; the intrinsic clearance, human liver microsomes is 22.1 mL/min/kg; the intrinsic clearance, rat liver microsomes turned out to be 2210 mL/min/kg; the aqueous solubility was 54.7 µg/mL (≈ 272 µM).

`Nc1nc(N)c2nc(-c3cccc(O)c3)c(-c3cccc(O)c3)nc2n1`: the MDR1-MDCK efflux ratio amounted to 2.78; the intrinsic clearance, human liver microsomes is at most 4.74 mL/min/kg; the intrinsic clearance, rat liver microsomes amounted to 115 mL/min/kg; the aqueous solubility is 2.1 µg/mL (≈ 6.06 µM).

The compound `O=C(Nc1cc[nH]n1)c1ccc2c(c1)[nH]c(=O)n2C1CCCC1` had an intrinsic clearance, human liver microsomes of 18.1 mL/min/kg and an intrinsic clearance, rat liver microsomes of 53.5 mL/min/kg.

On to `O=C(CC[C@@H]1CCCN2CCCC[C@H]12)NCc1cnc2c(c1)CCC2`, for which the MDR1-MDCK efflux ratio is 26.7; the intrinsic clearance, human liver microsomes is at most 4.74 mL/min/kg; the intrinsic clearance, rat liver microsomes came to 286 mL/min/kg.
